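Interpolation was linear, between the two tested concentrations surrounding the appropriate level; five concentrations were tested over 48 hours in 96-well plates. GI50 marks 50% less growth.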 Activity calls are given as the source filed them. Rule as the data show it: active = GI50 up to about 1.1 µM and inactive = higher.
Columns and labels:
Assay in all cases: inhibition of tumour cell growth, NCI panel, 48 h
SK-MEL-5 = test system: SK-MEL-5
SF-268 = test system: SF-268
UO-31 = test system: UO-31
A549 = test system: A549
MDA-MB-231 = test system: MDA-MB-231
K562 = test system: K562
T47D = test system: T47D
KM12 = test system: KM12
SNB-19 = test system: SNB-19
SK-MEL-2 = test system: SK-MEL-2
TK-10 = test system: TK-10
U-251 = test system: U-251
SF-539 = test system: SF-539
A498 = test system: A498
MDA-MB-435 = test system: MDA-MB-435
OVCAR-3 = test system: OVCAR-3
OVCAR-5 = test system: OVCAR-5
HOP-62 = test system: HOP-62
HL-60 = test system: HL-60

Measured: GI50

CC(C)OC1OC(CO)C(O)CC1n1cc(F)c(=O)[nH]c1=O (configuration not stated)
inactive: SK-MEL-5 > 100 µM | SF-268 59.3 µM | UO-31 > 100 µM | A549 > 100 µM | MDA-MB-231 > 100 µM | K562 34.4 µM | T47D 48.4 µM | KM12 > 100 µM | SNB-19 > 100 µM | SK-MEL-2 > 100 µM | TK-10 > 100 µM | U-251 66.8 µM | SF-539 > 100 µM | A498 > 100 µM | MDA-MB-435 > 100 µM | OVCAR-3 > 100 µM | OVCAR-5 > 100 µM

COc1ccc(/N=N/c2ccc3oc(=O)c(C(=O)Nc4ccccc4C)cc3c2)cc1
inactive: SK-MEL-5 > 10 µM | SF-268 > 10 µM | UO-31 > 10 µM | MDA-MB-231 > 10 µM | T47D > 10 µM | KM12 > 10 µM | HOP-62 > 10 µM | SK-MEL-2 > 10 µM | TK-10 > 10 µM | U-251 > 10 µM | SF-539 > 10 µM | A498 > 10 µM | MDA-MB-435 > 10 µM | OVCAR-3 > 10 µM | OVCAR-5 > 10 µM

COc1ccc(Nc2nc3ccccc3nc2-c2cccs2)cc1OC
inactive: SK-MEL-5 > 10 µM | SF-268 > 10 µM | UO-31 > 10 µM | A549 > 10 µM | MDA-MB-231 > 10 µM | K562 > 10 µM | HL-60 > 10 µM | T47D > 10 µM | KM12 > 10 µM | SNB-19 > 10 µM | HOP-62 > 10 µM | SK-MEL-2 > 10 µM | TK-10 > 10 µM | U-251 > 10 µM | SF-539 > 10 µM | MDA-MB-435 > 10 µM | OVCAR-3 > 10 µM | OVCAR-5 > 10 µM

Cc1nn(C(=O)c2ccc(Cl)cc2)c2c1C(/C=C/c1ccccc1)SC(=N)N2 (configuration not stated)
inactive: SK-MEL-5 > 10 µM | SF-268 > 10 µM | A549 > 10 µM | MDA-MB-231 > 10 µM | K562 > 10 µM | HL-60 > 10 µM | T47D > 10 µM | KM12 > 10 µM | SNB-19 > 10 µM | HOP-62 > 10 µM | SK-MEL-2 > 10 µM | TK-10 > 10 µM | U-251 > 10 µM | SF-539 > 10 µM | MDA-MB-435 > 10 µM | OVCAR-3 > 10 µM | OVCAR-5 > 10 µM

Reference: ChEMBL document CHEMBL1201862, “PubChem BioAssay data set” (2004)
